The structures appear in SMILES notation.

The record followed here is ChEMBL document CHEMBL6087390, “Pyridine and Pyrimidine hybrids as privileged scaffolds in antimalarial drug discovery: A recent development” (Bioorg Med Chem Lett, 2024).

Data set [1] is described as follows: Cytotoxicity against human MRC5 cells assessed as inhibition of cell growth incubated for 72 hrs by MTT assay. Type of data set: toxicity, cell-based. Background: Tetrazolium dyes change colour on reduction, which living cells bring about.
Data set [2] relates to HepG2. The experiment in a line: Cytotoxicity against human HepG2 cells assessed as reduction in cell viability measured for 48 hrs by MTT assay. Type of data set: functional.
Data set [3] deals with Plasmodium falciparum. The experiment in a line: Antiplasmodial activity against multidrug resistant Plasmodium falciparum K1 assessed as reduction in parasite growth by [3H]-hypoxanthine incorporation assay. Type of data set: functional, organism-based.
Data set [4] concerns Plasmodium falciparum. The experiment in a line: microbe, parasite or virus in culture. To be noted: 3D7, 72 h.
In data set [5] the test system is Plasmodium falciparum. Briefly: Antiplasmodial activity against Plasmodium falciparum W2 assessed as reduction in parasite growth after 72 hrs by SYBR Green fluorescence assay. Type of data set: functional, organism-based. The conditions noted are these: W2, 72 h.
In data set [6] the test system is Plasmodium falciparum. The experiment in a line: Antiplasmodial activity against Plasmodium falciparum K1. In kind it is functional, organism-based.
For data set [7], the system named is HepG2. The experiment in a line: Cytotoxicity against human HepG2 cells assessed as reduction in cell viability incubated for 72 hrs by MTT assay. Type of data set: functional.
The subject of data set [8] is Plasmodium falciparum. The experiment in a line: Antiplasmodial activity against Plasmodium falciparum NF54 assessed as reduction in parasite growth. Type of data set: functional, organism-based.
Data set [9] concerns Plasmodium falciparum. The experiment in a line: Antimalarial activity against CQ-resistant Plasmodium falciparum Dd2. In kind it is functional, organism-based.
Data set [10] deals with Plasmodium falciparum. Briefly: Antimalarial activity against Plasmodium falciparum K1 assessed as parasite growth inhibition. In kind it is functional, organism-based.
The test system of data set [11] is Plasmodium falciparum. The experiment in a line: Antimalarial activity against […] Plasmodium falciparum NF54 assessed as inhibition of parasite growth incubated for 48 hrs by SYBR green dye based flow cytometry. In kind it is functional, organism-based. The conditions noted are these: NF54, 48 h. (In general: A flow cytometer gives signals particle by particle.)

In data set [12] the test system is Plasmodium falciparum. The experiment in a line: Antimalarial activity against Plasmodium falciparum K1 assessed as reduction in parasite growth incubated for 48 hrs by SYBR Green I staining based analysis. Type of data set: functional, organism-based. The conditions noted are these: K1, 48 h.
In data set [13] the test system is Plasmodium falciparum. The experiment in a line: microbe, parasite or virus in culture. The conditions noted are these: W2.
Description: Antimalarial activity against Plasmodium falciparum W2 assessed as reduction in parasite growth
Data set [14] relates to Plasmodium falciparum. The experiment in a line: microbe, parasite or virus in culture. To be noted: W2. The source holds these as a separate data set.
For data set [15], the system named is Plasmodium falciparum. Briefly: Antimalarial activity against Plasmodium falciparum 3D7 assessed as inhibition of parasite growth measured after 72 hrs by SYBR Green I staining based analysis. Type of data set: functional, organism-based. The conditions noted are these: 3D7, 72 h.
Data set [16] concerns Plasmodium falciparum. Briefly: Antiplasmodial activity against Plasmodium falciparum Dd2 assessed as reduction in parasite growth measured after 72 hrs by SYBR Green 1 staining based assay. The conditions noted are these: Dd2, 72 h. In kind it is functional, organism-based.
Data set [17] concerns HepG2. Briefly: Cytotoxicity against human HepG2 cells assessed as reduction in cell viability measured for 48 hrs by SRB assay. Type of data set: functional. A general note: Sulforhodamine B stains cellular protein and so reports cell mass.
In data set [18] the test system is Plasmodium falciparum. The experiment in a line: Antimalarial activity against Plasmodium falciparum 3D7 assessed as inhibition of parasite growth incubated for 72 hrs by SYBR Green I staining based analysis. Type of data set: functional, organism-based. To be noted: 3D7, 72 h.
The test system of data set [19] is HepG2. Briefly: Cytotoxicity against human HepG2 cells assessed as reduction in cell growth. Type of data set: functional.
The nature of data set [20]: Cytotoxicity against African green monkey Vero cells assessed as reduction in cell growth measured after 72 hrs by MTT assay. Type of data set: toxicity, cell-based. To be noted: African green monkey (Chlorocebus sabaeus).
Data set [21] is described as follows: Cytotoxicity against african green monkey Vero cells assessed as cell viability measured after 48 hrs by MTT assay. To be noted: chlorocebus sabaeus, time 48 hrs. Type of data set: toxicity, cell-based, Chlorocebus sabaeus.
Data set [22] has as its system Plasmodium falciparum. Type of data set: functional, organism-based. The conditions noted are these: W2.

For orientation: IC50 means the concentration that inhibits the measured activity by half. In the case of `CCc1nnc2ccc(S(=O)(=O)N(Cc3cccc(F)c3)c3ccc(OC)cc3)cn12`, the IC50 at 72 h in [1] worked out at 18.2 µM.

What is called CC50 is the concentration giving 50% cytotoxicity. One may read the EC50 as the concentration giving half of the maximal effect. For the compound `CCc1ccccc1N(C)C(=O)C(c1cncnc1)N(Cc1cccc(C(F)(F)F)c1)C1CC1` (centres undefined), the 50% cytotoxic concentration (CC50) in the data set with HepG2 [2] was > 30 µM. The EC50 with Plasmodium falciparum [3] is 0.57 µM.

In the case of `COc1ccc(NC(=O)C(c2ccc(F)c(Cl)c2)N2CCN(c3ncnc4sc5c(c34)CCCC5)CC2)cc1` (centres undefined), the values for the IC50 with Plasmodium falciparum [4] and in the data set on Plasmodium falciparum [5] were 1 µM and 0.12 µM, respectively.

With `Clc1ccc2c(NCCN3CCN(c4ncccn4)CC3)ccnc2c1`, the IC50 in the data set on Plasmodium falciparum [4] turned out to be 0.108 µM; with Plasmodium falciparum [6] it was 0.277 µM.

As to `COc1ccc(C(F)(F)F)cc1CN(C1CC1)C(c1cccnc1)c1nnnn1-c1ccccc1C` (centres undefined), in the data set on HepG2 [7], the CC50 stood at 16 µM.

`CN(C(=O)C(c1cncnc1)N(Cc1cccc(C(F)(F)F)c1)C1CC1)c1ccccc1` (centres undefined): the CC50 with HepG2 [2] is > 30 µM. Moreover, the EC50 in the data set on Plasmodium falciparum [3] is 2 µM.

Regarding `COc1ccc(NC(=O)C(c2ccc(OC(F)(F)F)cc2)N2CCN(c3ncnc4sc5c(c34)CCCC5)CC2)cc1` (centres undefined), the 50% inhibitory concentration (IC50) in the data set with Plasmodium falciparum [5] turned out to be 0.06 µM.

Turning to `Oc1ccc(-c2cc(-c3ccc(O)cc3)nc(NCCCCNc3ccnc4cc(Cl)ccc34)n2)cc1`, the IC50 in the data set on Plasmodium falciparum [8] is 0.32 µM.

As for `O=C1CCCN1c1ccc(-n2nc3c(S(=O)(=O)N4CCOCC4)cccn3c2=O)cc1`, the IC50 at 72 h in data set [1] was > 64 µM. Moreover, half-maximal inhibition in the data set on Plasmodium falciparum [6] (IC50) required 27.8 µM.

With `O=c1n(-c2cccc(Cl)c2)nc2c(S(=O)(=O)N3CCCCC3)cccn12`, in [1], the IC50 at 72 h was > 64 µM. This compound also came in with an IC50 in the data set on Plasmodium falciparum [6] of 2.24 µM.

The compound `COc1ccc2nc(/C=C/c3ccncc3)cc(N3CCCC3)c2c1` displayed an IC50 with Plasmodium falciparum [9] of 0.36 µM.

Consider `Cc1ccccc1N(C)C(=O)C(c1cncnc1)N(Cc1cccc(SC(F)(F)F)c1)C1CC1` (centres undefined), for which the CC50 with HepG2 [2] was > 30 µM. Also, the EC50 in the data set on Plasmodium falciparum [3] stood at 1 µM.

`COc1ccc2nc(/C=C/c3ccncc3)cc(NCCN(C)C)c2c1`: the IC50 with Plasmodium falciparum [9] was 0.03 µM.

In the case of `CC1(C)c2nc(-c3ccc(F)cc3)c(Br)n2CCN1C(=O)Cn1cc(-c2ccccn2)nn1`, the IC50 in the data set on Plasmodium falciparum [10] came to 88.3 µM; in the data set with Plasmodium falciparum [11] it was 73.1 µM.

Consider `COC(=O)C1=C(Cn2cc(COc3cc(C(F)(F)F)nc4c(C(F)(F)F)cccc34)nn2)NC(=O)NC1c1ccc(F)cc1` (centres undefined), for which the half-maximal inhibitory concentration (IC50) in the data set on Plasmodium falciparum [12] is > 10 µM.

Take `CCN(CC)Cc1cc(Nc2ccnc3cc(Cl)ccc23)ccc1O` [AMODIAQUINE]: the values for the half-maximal inhibitory concentration (IC50) in the data set on Plasmodium falciparum [13] and in the data set with Plasmodium falciparum [14] were 0.06 µM and 0.07 µM, respectively.

In the case of `Clc1ccc2c(NCCn3cc(-c4ccnc(-c5ccccn5)c4)nn3)ccnc2c1`, the values for the IC50 in the data set with Plasmodium falciparum [10] and in the data set on Plasmodium falciparum [11] were 0.27 µM and 0.09 µM, respectively.

Consider `Clc1ccc2c(NCCn3cc(-c4ccccn4)nn3)ccnc2c1`, for which the figures for the IC50 in the data set on Plasmodium falciparum [10] and in the data set on Plasmodium falciparum [11] were 0.95 µM and 0.62 µM, respectively.

Consider `COC(=O)C1=C(Cn2cc(CCOc3cc(C(F)(F)F)nc4c(C(F)(F)F)cccc34)nn2)NC(=O)NC1c1ccc(F)cc1` (centres undefined), for which the IC50 in the data set on Plasmodium falciparum [12] is > 5 µM.

With `Cc1ccccc1-n1nnnc1C(c1cccnc1)N(Cc1cc(C(F)(F)F)ccc1F)C1CC1` (centres undefined), in the data set with Plasmodium falciparum [15], the EC50 was found to be 0.6 µM.

As to `CC(=O)N(Cc1cccc(C(F)(F)F)c1)C(c1cncnc1)c1nnnn1-c1ccccc1C` (centres undefined), the EC50 in the data set on Plasmodium falciparum [16] was > 30 µM; in the data set with Plasmodium falciparum [18] it was 15 µM. The CC50 in the data set on HepG2 [17] was > 30 µM.

With `CCN(CC)CCCC(C)Nc1ccnc2cc(Cl)ccc12` (centres undefined) [CHLOROQUINE], the CC50 in the data set on HepG2 [19] came to 45.4 µM. Moreover, the IC50 at 72 h in [20] stood at 907 µM. Further, the CC50 at 48 h in data set [21] is 393 µM.

Take `Cc1cccc(-n2nc3ccc(S(=O)(=O)N4CCC(C)CC4)cn3c2=O)c1`: the IC50 at 72 h in data set [1] is > 64 µM. In the data set with Plasmodium falciparum [6], the IC50 amounted to 8 µM.

`CC(C)=CCC1=C(O)C(=O)c2ccccc2C1=O` [LAPACHOL]: in data set [21], the CC50 at 48 h is > 4130 µM.

On to `CN(Cc1cccc(C(F)(F)F)c1F)C(c1cccnc1)c1nnnn1C1CCCCC1` (centres undefined), for which the EC50 with Plasmodium falciparum [15] is 1.7 µM; with Plasmodium falciparum [16], 2.6 µM.

For the compound `Cc1ccc(-n2ncc3c(NCCCCN)ncnc32)cc1`, the midpoint of inhibition in the data set on Plasmodium falciparum [22], the IC50, lay at 18.2 µM.

Consider `COC(=O)C1=C(Cn2cc(COc3cc(C(F)(F)F)nc4c(C(F)(F)F)cccc34)nn2)NC(=O)NC1c1ccc(OC)cc1` (centres undefined), for which the IC50 with Plasmodium falciparum [12] was > 5 µM.

Turning to `COc1ccc2nc(/C=C/c3ccncc3)ccc2c1`, the IC50 in the data set with Plasmodium falciparum [9] is > 10 µM.

Regarding `Cc1ccccc1N(C)C(=O)C(c1cncnc1)N(Cc1cccc(OC(F)(F)F)c1)C1CC1` (centres undefined), in the data set on HepG2 [2], the CC50 was > 30 µM. Besides, the EC50 in the data set on Plasmodium falciparum [3] amounted to 0.59 µM.

Turning to `COc1ccc(-c2cc(-c3ccc(OC)cc3)nc(N3CCN(c4ccnc5cc(Cl)ccc45)CC3)n2)cc1`, in the data set on Plasmodium falciparum [8], the IC50 stood at 7.69 µM.

`COc1ncnc(NS(=O)(=O)c2ccc(N)cc2)c1OC` [SULFADOXINE] gave an IC50 with Plasmodium falciparum [22] of 15 µM.
